This note sets out measurements from patent US20250215029A1 (Recludix Pharma, Inc., priority 2022, published 2025).

pIC50: −log10 of the molar value. Like-named read-outs stand apart in the source and are kept apart here.

The target in test [1] is T1, pY705-STAT3 in PBMC (Homo sapiens, UniProt P40763).
T1 construct: Cryopreserved Peripheral Blood Mononuclear Cells (PBMC) are from AllCells; host or cells: cryopreserved PBMC
As to the kind of experiment: MSD-pSTAT-PBMC Assay (pSTAT3, IL-6 stimulated). Format: cell-based. The settings on record: PBMC, compound 3 hrs, then 10 ng/mL IL-6 for 10 min; Table 115; read-out: STAT3. The text has this: Cryopreserved Peripheral Blood Mononuclear Cells (PBMC) are from AllCells. Recombinant Human IL-4 and IL-6 are from Peprotech. Mouse monoclonal anti-STAT3 antibody, rabbit monoclonal anti-pY705-STAT3 antibody, rabbit monoclonal Anti-pY641-STAT6 antibody, and lysis buffer are from Cell Signaling Technology (CST). Mouse monoclonal anti-STAT6 antibody is from BioLegend. Assay plates, blocker, and anti-rabbit secondary antibody are from Meso Scale Discovery (MSD).
Cyropreserved PBMCs were thawed out and allowed to recover overnight in IMDM+10% heat-inactivated FBS prior to plating 50,000 (STAT3) or 25,000 (STAT6) cells per well in 96-well U-bottom tissue culture plates. Cells were treated with compound for 3 hrs, then stimulated with 10 ng/mL IL-6 (STAT3) or 1 ng/mL IL-4 (STAT6) for 10 min. Cells were then spun down and washed with ice-cold PBS prior to lysing the cell pellet with 1× lysis buffer (CST) with 1× HALT protease and phosphatase inhibitor cocktail (Thermo). Lysates were transferred to and incubated overnight at 4° C. with shaking in QuickPlex 96-well high bind assay plates (MSD) pre-coated overnight with 30 μL per well of 0.6 μg/mL mouse monoclonal anti-STAT3 antibody (STAT3) or 2 μg/mL mouse monoclonal anti-STAT6 antibody (STAT6) in 1× PBS, and pre-blocked for 1 hour with 3% Blocker-A (MSD). Captured protein in the assay plates were then washed and probed with 25 μL per well of […] rabbit monoclonal anti-pY705-STAT3 antibody (STAT3) or 0.18 μg/ml rabbit monoclonal Anti-pY641-STAT6 antibody (STAT6) in 1% Blocker-A for 1 hour at room temperature with shaking, then washed and probed with 25 ul per well of 1 ug/ml Sulfo-TAG Labeled Goat Anti-Rabbit Antibody (MSD) in 1% Blocker-A for 1 hour at room temperature with shaking. Assay plates were then washed and 150 μL of 1× Read Buffer-T (MSD) was added to each well prior to reading on an SQ120 MSD Plate Reader. Assay signal from each sample was subtracted by the signal from unstimulated control wells and normalized to DMSO control wells. IC50 values were calculated using Graph Pad Prism Dose-Response Nonlinear Regression with variable slope. For both pSTAT3 and pSTAT6 A=≤100 nM; B 100-1000 nM; C=>1000-3000 nM; D=>3 μM; and NT=Not Tested.

Test [2] has as its target T2, Recombinant STAT6 protein (STAT6 (W123-T658)) (Homo sapiens, UniProt P42226).
T2 construct: Recombinant STAT6 protein (STAT6 (W123-T658))
T2 sequence (P42226 123-658): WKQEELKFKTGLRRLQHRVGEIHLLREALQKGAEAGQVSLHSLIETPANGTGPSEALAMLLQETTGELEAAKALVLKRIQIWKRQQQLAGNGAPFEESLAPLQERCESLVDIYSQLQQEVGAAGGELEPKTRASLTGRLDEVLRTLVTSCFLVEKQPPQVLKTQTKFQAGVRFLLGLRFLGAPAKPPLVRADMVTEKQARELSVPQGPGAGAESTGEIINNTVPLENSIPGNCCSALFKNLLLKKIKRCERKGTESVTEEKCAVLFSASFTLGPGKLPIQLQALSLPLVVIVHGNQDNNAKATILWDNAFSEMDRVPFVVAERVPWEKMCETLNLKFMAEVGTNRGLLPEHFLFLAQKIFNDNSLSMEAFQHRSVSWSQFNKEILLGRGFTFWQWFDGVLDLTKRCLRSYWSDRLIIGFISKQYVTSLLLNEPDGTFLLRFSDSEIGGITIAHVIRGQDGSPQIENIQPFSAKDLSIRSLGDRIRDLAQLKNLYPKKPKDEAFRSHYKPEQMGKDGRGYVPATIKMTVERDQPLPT
Put plainly: STAT6 Fluorescence Polarization (FP) Assay. The test is classed as binding. The note with it: STAT6 (W123-T658) 250 nM, 45-minute incubation, read-out: STAT6 (FP assay IC50 class). The method in brief:
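Displacement of a fluorescent phosphotyrosine peptide (2 nM) from 250 nM STAT6 (W123-T658) is measured by polarization after a 45-minute room-temperature incubation. Compounds are titrated serially at 1% DMSO, and IC50 values derive from regression of mP on log concentration.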
On the technique in general: In fluorescence polarisation assays a small probe gives low polarisation when free and higher when bound to something large.

Test [3] concerns the target T3, Recombinant STAT3 protein (STAT3 (G127-I722)) (Homo sapiens, UniProt P40763).
T3 construct: Recombinant STAT3 protein (STAT3 (G127-I722))
As to the kind of experiment: STAT3 Fluorescence Polarization (FP) Assay. The test is classed as binding. The note with it: STAT3 (G127-I722) 25 nM, probe 5-FAM-GpYLPQTV-NH2 2 nM, 45-minute incubation; read-out: STAT3 (FP assay IC50 class). The essentials:
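Displacement of a 2 nM 5-FAM-labelled pY peptide (GpYLPQTV) from 25 nM recombinant STAT3 (G127-I722) was monitored by fluorescence polarization. Incubation lasted 45 min at room temperature in pH 7.4 HEPES buffer containing 1% DMSO.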

Setting [4] is: probe 5-FAM-ApYKPFQDLI-NH2 2 nM.

T3 sequence (P40763 127-722): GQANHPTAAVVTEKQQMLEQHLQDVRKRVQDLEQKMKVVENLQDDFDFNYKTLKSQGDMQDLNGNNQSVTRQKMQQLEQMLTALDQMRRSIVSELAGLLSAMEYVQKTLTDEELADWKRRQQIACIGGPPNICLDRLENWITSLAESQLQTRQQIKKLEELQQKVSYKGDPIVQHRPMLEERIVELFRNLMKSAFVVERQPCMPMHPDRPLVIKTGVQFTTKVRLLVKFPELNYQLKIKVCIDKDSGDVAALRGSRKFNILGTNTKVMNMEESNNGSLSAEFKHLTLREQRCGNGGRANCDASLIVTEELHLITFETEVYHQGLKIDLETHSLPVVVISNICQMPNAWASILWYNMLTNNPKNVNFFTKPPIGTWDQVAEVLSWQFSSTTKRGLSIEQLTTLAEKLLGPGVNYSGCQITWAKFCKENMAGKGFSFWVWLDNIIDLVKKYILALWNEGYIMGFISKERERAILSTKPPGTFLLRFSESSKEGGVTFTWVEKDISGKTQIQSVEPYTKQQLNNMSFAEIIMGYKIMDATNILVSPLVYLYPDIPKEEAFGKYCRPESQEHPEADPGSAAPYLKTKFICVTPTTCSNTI
T1 sequence (P40763 whole entry): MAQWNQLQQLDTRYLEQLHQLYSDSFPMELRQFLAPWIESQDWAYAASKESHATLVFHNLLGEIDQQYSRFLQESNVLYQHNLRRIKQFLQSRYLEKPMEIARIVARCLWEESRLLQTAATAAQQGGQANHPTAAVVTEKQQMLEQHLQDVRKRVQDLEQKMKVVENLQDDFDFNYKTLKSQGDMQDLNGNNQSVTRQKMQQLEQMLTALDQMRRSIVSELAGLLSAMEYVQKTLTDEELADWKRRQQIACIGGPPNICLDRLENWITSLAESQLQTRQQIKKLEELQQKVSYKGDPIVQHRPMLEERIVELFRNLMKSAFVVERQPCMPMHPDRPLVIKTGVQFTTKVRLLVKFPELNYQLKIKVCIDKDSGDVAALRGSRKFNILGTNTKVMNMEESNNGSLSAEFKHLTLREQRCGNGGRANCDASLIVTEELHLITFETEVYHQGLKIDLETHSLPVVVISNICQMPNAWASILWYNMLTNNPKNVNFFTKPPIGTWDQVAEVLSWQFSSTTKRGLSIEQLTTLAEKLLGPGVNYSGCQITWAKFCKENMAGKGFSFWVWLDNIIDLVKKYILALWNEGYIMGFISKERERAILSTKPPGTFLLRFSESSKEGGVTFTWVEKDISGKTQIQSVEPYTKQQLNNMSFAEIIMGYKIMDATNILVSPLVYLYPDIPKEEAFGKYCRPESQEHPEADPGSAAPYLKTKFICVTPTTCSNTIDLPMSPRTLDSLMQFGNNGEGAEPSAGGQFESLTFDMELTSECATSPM

Consider `CCCOC(=O)[C@H](C)N[P@](=O)(Oc1ccccc1)[C@@H](F)c1ccc2sc(C(=O)N[C@H]3CCC[C@H]4CC[C@@H](C(=O)N5CC(c6cccnc6)C5)N4C3=O)cc2c1` (single isomer, unassigned) [Compound 446], for which, in test [1], the pIC50 was greater than 7.00. Take `O=C(N[C@H]1CCC[C@H]2CC[C@@H](C(=O)NCc3cnc4[nH]cnc4c3)N2C1=O)c1cc2cc(C(F)(F)P(=O)(O)O)ccc2s1` [Compound 1118, ((2-(((3S,6S,9aS)-3-(((3H-imidazo[4,5-b]pyridin-6-yl)methyl)carbamoyl)-5-oxooctahydro-1H-pyrrolo[1,2-a]azepin-6-yl)carbamoyl)benzo[b]thiophen-5-yl)difluoromethyl)phosphonic acid]: the figures for the pIC50 in test [2] (probe 5-FAM-Ap[…]-NH2 2 nM) and in test [3] were 5.52 to 6.52 and greater than 7.00, respectively. The like results for `Cn1cnc2cc(CNC(=O)[C@@H]3CC[C@@H]4CCC[C@H](NC(=O)c5cc6cc(C(F)(F)P(=O)(O)O)ccc6s5)C(=O)N43)cnc21` [Compound 1119, (difluoro(2-(((3S,6S,9aS)-3-(((3-methyl-3H-imidazo[4,5-b]pyridin-6-yl)methyl)carbamoyl)-5-oxooctahydro-1H-pyrrolo[1,2-a]azepin-6-yl)carbamoyl)benzo[b]thiophen-5-yl)methyl)phosphonic acid] were, in that order, 5.52 to 6.52 and 6.00 to 7.00.

`Cn1cnc2ncc(CNC(=O)[C@@H]3CC[C@@H]4CCC[C@H](NC(=O)c5cc6cc(C(F)(F)P(=O)(O)O)ccc6s5)C(=O)N43)cc21` [Compound 1120, (difluoro(2-(((3S,6S,9aS)-3-(((1-methyl-1H-imidazo[4,5-b]pyridin-6-yl)methyl)carbamoyl)-5-oxooctahydro-1H-pyrrolo[1,2-a]azepin-6-yl)carbamoyl)benzo[b]thiophen-5-yl)methyl)phosphonic acid]: the pIC50 in test [2] (probe 5-FAM-Ap[…]-NH2 2 nM) is 5.52 to 6.52; in test [3] it was 6.00 to 7.00. As for `COCC(NC(=O)[C@@H]1CC[C@@H]2CCCC[C@H](NC(=O)c3cc4cc(C(F)(F)P(=O)(O)O)ccc4s3)C(=O)N21)c1c[nH]c2ncccc12` (stereo partly drawn) [Compound 1121, (difluoro(2-(((3S,6S,10aS)-3-((2-methoxy-1-(1H-pyrrolo[2,3-b]pyridin-3-yl)ethyl)carbamoyl)-5-oxodecahydropyrrolo[1,2-a]azocin-6-yl)carbamoyl)benzo[b]thiophen-5-yl)methyl)phosphonic acid], the values for the pIC50 in test [2] (probe 5-FAM-Ap[…]-NH2 2 nM) and in test [3] were 4.52 to 5.52 and 5.00 to 6.00, respectively. The matching figures for `NC(=O)Cc1cc(-c2ccccc2)ccc1NC(=O)[C@@H]1CCC2CCC[C@H](NC(=O)c3cc4cc(C(F)(F)P(=O)(O)O)ccc4s3)C(=O)N21` (stereo partly drawn) [Compound 1122, ((2-(((35,6S)-3-((3-(2-amino-2-oxoethyl)-[1,1′-biphenyl]-4-yl)carbamoyl)-5-oxooctahydro-1H-pyrrolo[1,2-a]azepin-6-yl)carbamoyl)benzo[b]thiophen-5-yl)difluoromethyl)phosphonic acid]: 4.52 to 5.52 and 6.00 to 7.00.

For `Cn1cc(C2CN(C(=O)[C@@H]3CC[C@@H]4CCC[C@H](NC(=O)c5cc6cc(C(F)(F)P(=O)(O)O)ccc6s5)C(=O)N43)CCO2)cn1` (stereo partly drawn) [Compound 1123], the pIC50 in test [2] (probe 5-FAM-Ap[…]-NH2 2 nM) is 5.52 to 6.52; in test [3], 5.00 to 6.00. The matching figures for `O=C(N[C@H]1CCC[C@H]2CC[C@@H](C(=O)N3CCOC(c4cccnc4)C3)N2C1=O)c1cc2cc(C(F)(F)P(=O)(O)O)ccc2s1` (stereo partly drawn) [Compound 1124, (difluoro(2-(((3S,6S,9aS)-5-oxo-3-(2-(pyridin-3-yl)morpholine-4-carbonyl)octahydro-1H-pyrrolo[1,2-a]azepin-6-yl)carbamoyl)benzo[b]thiophen-5-yl)methyl)phosphonic acid]: no less than 6.52 and 6.00 to 7.00. As to `O=C(N[C@H]1CCC[C@H]2CC[C@@H](C(=O)N3CCN(c4cccnc4)CC34CC4)N2C1=O)c1cc2cc(C(F)(F)P(=O)(O)O)ccc2s1` [Compound 1125, (difluoro(2-(((3S,6S,9aS)-5-oxo-3-(7-(pyridin-3-yl)-4,7-diazaspiro[2.5]octane-4-carbonyl)octahydro-1H-pyrrolo[1,2-a]azepin-6-yl)carbamoyl)benzo[b]thiophen-5-yl)methyl)phosphonic acid], the values for the pIC50 in test [2] (probe 5-FAM-Ap[…]-NH2 2 nM) and in test [3] were 5.52 to 6.52 and greater than 7.00, respectively. Regarding `Cn1cnnc1C1CN(C(=O)[C@@H]2CC[C@@H]3CCC[C@H](NC(=O)c4cc5cc(C(F)(F)P(=O)(O)O)ccc5s4)C(=O)N32)CCO1` (stereo partly drawn) [Compound 1126, (difluoro(2-(((3S,6S,9aS)-3-(2-(4-methyl-4H-1,2,4-triazol-3-yl)morpholine-4-carbonyl)-5-oxooctahydro-1H-pyrrolo[1,2-a]azepin-6-yl)carbamoyl)benzo[b]thiophen-5-yl)methyl)phosphonic acid], the pIC50 is 5.52 to 6.52 in test [2] (probe 5-FAM-Ap[…]-NH2 2 nM) and 6.00 to 7.00 in test [3]. The matching figures for `Cc1nnc(C2CN(C(=O)[C@@H]3CC[C@@H]4CCC[C@H](NC(=O)c5cc6cc(C(F)(F)P(=O)(O)O)ccc6s5)C(=O)N43)CCO2)o1` (stereo partly drawn) [Compound 1127, (difluoro(2-(((3S,6S,9aS)-3-(2-(5-methyl-1,3,4-oxadiazol-2-yl)morpholine-4-carbonyl)-5-oxooctahydro-1H-pyrrolo[1,2-a]azepin-6-yl)carbamoyl)benzo[b]thiophen-5-yl)methyl)phosphonic acid]: 5.52 to 6.52 and 6.00 to 7.00. On to “((S)-(2- (((3S,6S,9aS)-3- ((6S,7R)-7-cyano-6- (pyridin-3-yl)-4- azaspiro[2.4] heptane-4- carbonyl)-5- oxooctahydro-1H- pyrrolo[1,2- a]azepin-6- yl)carbamoyl)benzo [b]thiophen-5- yl)fluoromethyl) phosphonic acid [Compound 838]”, for which the figures for the pIC50 in test [2] (setting [4]) and in test [3] were no less than 6.52 and 5.00 to 6.00, respectively. For the compound “(difluoro(2- (((3S,6S,10aS)-3- ((1R,5S,6S)-6-(5- methyl-1,3,4- oxadiazol-2-yl)-3- azabicyclo[3.1.0] hexane-3- carbonyl)-5- oxodecahydropyrrolo [1,2-a]azocin-6- yl)carbamoyl)benzo [b]thiophen-5- yl)methyl)phosphon ic acid [Compound 804]”, the pIC50 in test [2] (setting [4]) is 5.52 to 6.52; in test [3], 6.00 to 7.00. The like results for “(difluoro(2- (((3S,6S,10aS)-5- oxo-3-((1R,5S,6R)- 6-phenyl-3- azabicyclo[3.1.0] hexane-3- carbonyl)decahydro pyrrolo[1,2- a]azocin-6- yl)carbamoyl)benzo [b]thiophen-5- yl)methyl) phosphonic acid [Compound 805]” were, in that order, 4.52 to 5.52 and 6.00 to 7.00.
